Laboratory results: patent US9523100B2, “Pesticidal compositions and related methods” (DOW AGROSCIENCES LLC, priority 2013, dated 2016)

Assays:
[1] = test system: Sweetpotato Whitefly-Crawler (WF) (Bemisia tabaci) (BEMITA); assay: Insecticidal test for Sweetpotato Whitefly-Crawler (WF) in foliar spray assay on cotton plants; format: in vivo; conditions: 216 h, 200 ppm foliar spray on cotton plants, graded after 9 days, Abbott corrected % control, read-out: WF 200 ppm, % Control (or Mortality) rating
Description: Insecticidal Test for Sweetpotato Whitefly-Crawler (WF) (Bemisia tabaci) (BEMITA) in Foliar Spray Assay
The sweetpotato whitefly (Bemisia tabaci) has been reported as a serious pest of cultivated crops world-wide. It has an extremely wide host range attacking more than 500 species of plants from 63 plant families. Weeds often serve as alternate hosts of crop pests. Direct feeding damage is caused by the piercing and sucking sap from the foliage of plants. This feeding causes weakening and early wilting of the plant and reduces the plant growth rate and yield Indirect damage results by the accumulation of honeydew produced by the whiteflies. Honeydew serves as a substrate for the growth of black sooty mold on leaves and fruit reducing photosynthesis and lessens the market value of the plant or yield. […] The sweetpotato whitefly is considered the most common and important whitefly vector of plant viruses worldwide.
Cotton plants (Gossypium hirsutum) grown in 3-inch pots, with 1 small (4-5 cm) true leaves, were used as test substrate. The plants were infested with 200-400 whitefly eggs 4-5 days prior to chemical application. Four pots with individual plants were used for each treatment. Test compounds (2 mg) were dissolved in 1 mL of acetone solvent, forming stock solutions of 2000 ppm test compound. The stock solutions were diluted 10× with 0.025% Tween 20 in water (diluents) to obtain the solution at 200 ppm test compound. A hand-held aspirator-type sprayer was used for spraying a solution to both sides of cotton leaves until runoff. Reference plants (solvent check) were sprayed with the diluent only containing 10% by volume of acetone solvent. Treated plants were held in a holding room for 9 days at approximately 25° C. and ambient relative humidity (RH) prior to grading. Evaluation was conducted by counting the number of live 3-4 nymph stage per plant under a microscope. Percent control was measured by using Abbott's correction formula (W. S. Abbott, “A Method of Computing the Effectiveness of an Insecticide” J. Econ. Entomol. 18 (1925), pp. 265-267) as follows.
Biological Data for Green Peach Aphid (GPA) (MYZUPE) and Sweetpotato Whitefly-Crawler (WF) (BEMITA)” (see table section). Corrected % Control=100*(X−Y)/X
X=No. of live nymphs on solvent check plants and
Y=No. of live nymphs on treated plants
(§1) The mortality efficiency of the pesticidal compounds against GPA and WF insects was determined after treatment.

[2] = test system: Green Peach Aphid (GPA) (Myzus persicae) (MYZUPE); assay: Bioassay for Green Peach Aphid (GPA), foliar spray on cabbage seedlings; format: in vivo; conditions: 72 h, 200 ppm foliar spray on cabbage seedlings, graded after three days, Abbott corrected % control, read-out: GPA 200 ppm, % Control (or Mortality) rating
Description: Bioassay for Green Peach Aphid (GPA) (Myzus persicae) (MYZUPE)
The green peach aphid (Myzus persicae) is the most significant aphid pest of peach trees, causing decreased growth, shriveling of the leaves, and the death of various tissues. It is also hazardous because it acts as a vector for the transport of plant viruses, such as potato virus Y and potato leafroll virus to members of the nightshade/potato family Solanaceae, and various mosaic viruses to many other food crops. GPA attacks such plants as broccoli, burdock, cabbage, carrot, cauliflower, daikon, eggplant, green beans, lettuce, macadamia, papaya, peppers, sweet potatoes, tomatoes, watercress, and zucchini, among other plants GPA also attacks many ornamental crops such as carnation, chrysanthemum, flowering white cabbage, poinsettia, and roses. GPA has developed resistance to many pesticides.
Cabbage seedlings grown in 3-inch pots, with 2-3 small (3-5 cm) true leaves, were used as test substrate. The seedlings were infested with 20-50 GPA (wingless adult and nymph stages) one day prior to chemical application. Four pots with individual seedlings were used for each treatment. Test compounds (2 mg) were dissolved in 2 mL of acetone/methanol (1:1) solvent, forming stock solutions of 1000 ppm test compound. The stock solutions were diluted 5× with 0.025% Tween 20 in water to obtain the solution at 200 ppm test compound. A hand-held aspirator-type sprayer was used for spraying a solution to both sides of […] leaves until runoff. Reference plants (solvent check) were sprayed with the diluent only containing 20% by volume of acetone/methanol (1:1) solvent. Treated plants were held in a holding room for three days at approximately 25° C. and ambient relative humidity (RH) prior to grading. Evaluation was conducted by counting the number of live aphids per plant under a microscope. Percent control was measured by using Abbott's correction formula (W. S. Abbott, “A Method of Computing the Effectiveness of an Insecticide” J. Econ. Entomol. 18 (1925), pp. 265-267) as follows. Corrected % Control=100*(X−Y)/X
X=No. of live aphids on solvent check plants and
Y=No. of live aphids on treated plants
Biological Data for Green Peach Aphid (GPA) (MYZUPE) and Sweetpotato Whitefly-Crawler (WF) (BEMITA)” (see table section).
as §1

Row | Structure (SMILES) | mortality at 200 ppm [1] [%] | mortality at 200 ppm [2] [%]
1 | CCN(C(=O)CC1CCN(CC(F)(F)F)C1=O)c1cn(-c2cccnc2)nc1Cl (stereo not drawn) [FA65, N-(3-Chloro-1-(pyridin-3-yl)-1H-pyrazol-4-yl)-N-ethyl-2-(2-oxo-1-(2,2,2-trifluoroethyl)pyrrolidin-3-yl)acetamide] | 80 to 100 | 80 to 100
2 | CCN(C(=O)CCC1CCN(C(=O)OC(C)(C)C)C1=O)c1cn(-c2cccnc2)nc1Cl (stereo not drawn) [Compound F128, tert-butyl 3-(3-((3-chloro-1-(pyridin-3-yl)-1H-pyrazol-4-yl)(ethyl)amino)-3-oxopropyl)-2-oxopyrrolidine-1-carboxylate] | 80 to 100 | 80 to 100
3 | CCN(C(=O)CCC(=O)N1CCCC1)c1cn(-c2cccnc2)nc1Cl [Compound F106, N-(3-Chloro-1-(pyridin-3-yl)-1H-pyrazol-4-yl)-N-ethyl-4-oxo-4-(pyrrolidin-1-yl)butanamide] | 0 to 80 | 0 to 80
4 | CCN(C(=O)C1CCCN(C(=O)CC(F)(F)F)C1)c1cn(-c2cccnc2)nc1Cl (stereo not drawn) [FA42, N-(3-Chloro-1-(pyridin-3-yl)-1H-pyrazol-4-yl)-N-ethyl-1-(3,3,3-trifluoropropanoyl)piperidine-3-carboxamide] | 0 to 80 | 80 to 100
5 | CCN(C(=O)CCCC1CN(C)C1=O)c1cn(-c2cccnc2)nc1Cl (stereo not drawn) [Compound F53, N-(3-Chloro-1-(pyridin-3-yl)-1H-pyrazol-4-yl)-N-ethyl-4-(1-methyl-2-oxoazetidin-3-yl)butanamide] | 80 to 100 | 80 to 100
6 | CCN(C(=O)CCN(C)C(=O)CCC(F)(F)F)c1cn(-c2cccnc2)nc1Cl [Compound F94, N-(3-((3-Chloro-1-(pyridin-3-yl)-1H-pyrazol-4-yl)(ethyl)amino)-3-oxopropyl)-4,4,4-trifluoro-N-methylbutanamide] | 80 to 100 | 80 to 100
7 | CCN(C(=O)CN(C)C(=O)c1ccccc1)c1cn(-c2cccnc2)nc1Cl [Compound F83, N-(2-((3-chloro-1-(pyridin-3-yl)-1H-pyrazol-4-yl)(ethyl)amino)-2-oxoethyl)-N-methylbenzamide] | 0 to 80 | 80 to 100
8 | CCN(C(=O)CC/C(C)=N/OCc1ccc(C(F)(F)F)nc1)c1cn(-c2cccnc2)nc1Cl [FA22, (E/Z)-N-(3-Chloro-1-(pyridin-3-yl)-1H-pyrazol-4-yl)-N-ethyl-4-(((6-(trifluoromethyl)pyridin-3-yl)methoxy)imino)pentanamide] | 80 to 100 | 0 to 80
9 | CCN(C(=O)C1CCN(C(=O)CC(F)(F)F)C1)c1cn(-c2cccnc2)nc1Cl (stereo not drawn) [Compound P21, N-(3-Chloro-1-(pyridin-3-yl)-1H-pyrazol-4-yl)-N-ethyl-1-(3,3,3-trifluoropropanoyl)pyrrolidine-3-carboxamide] | 0 to 80 | 80 to 100
10 | CCN(C(=O)CNC(=O)CC(F)(F)F)c1cn(-c2cccnc2)nc1Cl [Compound F57, N-(2-((3-Chloro-1-(pyridin-3-yl)-1H-pyrazol-4-yl)(ethyl)amino)-2-oxoethyl)-3,3,3-trifluoropropanamide] | 80 to 100 | 80 to 100
11 | CCN(C(=O)CC/C(C)=N/O)c1cn(-c2cccnc2)nc1Cl [Compound F105, (E)-N-(3-chloro-1-(pyridin-3-yl)-1H-pyrazol-4-yl)-N-ethyl-4-(hydroxyimino) pentanamide] | 80 to 100 | 0 to 80
12 | CCN(C(=O)CC/C(=N/OCCCCC(F)(F)F)c1cccs1)c1cn(-c2cccnc2)nc1Cl [FA29, (Z)-N-(3-Chloro-1-(pyridin-3-yl)-1H-pyrazol-4-yl)-N-ethyl-4-(thiophen-2-yl)-4-(((5,5,5-trifluoropentyl)oxy)imino)butanamide] | 80 to 100 | 0 to 80
13 | CCN1CC(CC(=O)N(CC)c2cn(-c3cccnc3)nc2Cl)C1=O (stereo not drawn) [Compound F84, N-(3-Chloro-1-(pyridin-3-yl)-1H-pyrazol-4-yl)-N-ethyl-2-(1-ethyl-2-oxoazetidin-3-yl)acetamide] | 80 to 100 | 80 to 100
14 | CCN(C(=O)CCN(C)C(=O)N(C)C)c1cn(-c2cccnc2)nc1Cl [Compound F121, N-(3-Chloro-1-(pyridin-3-yl)-1H-pyrazol-4-yl)-N-ethyl-3-(1,3,3-trimethylureido)propanamide] | 80 to 100 | 80 to 100
15 | CCN(C(=O)CCC1CN(Cc2ccc(C(F)(F)F)cc2)C1=O)c1cn(-c2cccnc2)nc1Cl (stereo not drawn) [Compound F129] | 80 to 100 | 0 to 80
16 | CCN(C(=O)CC1CCNC1=O)c1cn(-c2cccnc2)nc1Cl (stereo not drawn) [FA63] | 80 to 100 | 80 to 100
17 | CCN(C(=O)C1CCN(C(=O)OC(C)(C)C)C1)c1cn(-c2cccnc2)nc1Cl (stereo not drawn) [Compound F11] | 80 to 100 | 0 to 80
18 | CCN(C(=O)C(C)OC(C)=O)c1cn(-c2cccnc2)nc1Cl (stereo not drawn) [Compound C12, 1-((3-chloro-1-(pyridin-3-yl)-1H-pyrazol-4-yl)(ethyl)amino)-1-oxopropan-2-yl acetate] | 80 to 100 | 80 to 100
19 | CCN(C(=O)CCNC(=O)C(C)CC(F)(F)F)c1cn(-c2cccnc2)nc1Cl (stereo not drawn) [Compound F44, N-(3-((3-Chloro-1-(pyridin-3-yl)-1H-pyrazol-4-yl)(ethyl)amino)-3-oxopropyl)-4,4,4-trifluoro-2-methylbutanamide] | 80 to 100 | 80 to 100
20 | CCN(C(=O)C1CN(C(=O)c2cccnc2)C1)c1cn(-c2cccnc2)nc1Cl [FA17, N-(3-Chloro-1-(pyridin-3-yl)-1H-pyrazol-4-yl)-N-ethyl-1-nicotinoyl azetidine-3-carboxamide] | 0 to 80 | 0 to 80
21 | CCN(C(=O)CC/C(C)=N/OCCCCC(F)(F)F)c1cn(-c2cccnc2)nc1Cl [FA4, (E/Z)-N-(3-Chloro-1-(pyridin-3-yl)-1H-pyrazol-4-yl)-N-ethyl-4-(((5,5,5-trifluoropentyl)oxy)imino)pentanamide] | 80 to 100 | 0 to 80
22 | CCSC(=O)N(C)CCC(=O)N(CC)c1cn(-c2cccnc2)nc1Cl [Compound F40, S-Ethyl (3-((3-chloro-1-(pyridin-3yl)-1H-pyrazol-4-yl)(ethyl)amino)-3-oxopropyl)(methyl) carbamothioate] | 0 to 80 | 0 to 80
23 | CCN(C(=O)CCC(=O)N(C)Cc1ccc(F)cc1)c1cn(-c2cccnc2)nc1Cl [Compound F118, N1-(3-Chloro-1-(pyridin-3-yl)-1H-pyrazol-4-yl)-N1-ethyl-N4-(4-fluorobenzyl)-N4-methylsuccinamide] | 80 to 100 | 80 to 100
24 | CCN(C(=O)C(C)C/C(C)=N\OCCC1CC1(F)F)c1cn(-c2cccnc2)nc1Cl (stereo not drawn) [FA57, (Z)-N-(3-Chloro-1-(pyridin-3-yl)-1H-pyrazol-4-yl)-4-((2-(2,2-difluorocyclopropyl)ethoxy)imino)-N-ethyl-2-methylpentanamide] | 0 to 80 | 80 to 100
